Source: patent US9937235B2, “Lipidated peptides as anti-obesity agents” (USTAV ORGANICKE CHEMIE A BIOCHEMIE AKADEMIE VED CR, V.V.I, priority 2012, dated 2018)
Where a SMILES comes first, the peptide text is derived from it. Where no end group is shown, it is not given here. [ ]: non-standard residue; d: D form. The star is where a group is joined. Nle = CCCC[C@H](N)C(=O)O; Octanoyl = CCCCCCCC(=O)*; Dap = NC[C@H](N)C(=O)O

T1: rat PrRP receptor (GPR10) in RC-4B/C cells (Rattus norvegicus, UniProt Q64121)
T1 construct: host or cells: RC-4B/C rat pituitary cell line
T1 sequence (Q64121 1-370): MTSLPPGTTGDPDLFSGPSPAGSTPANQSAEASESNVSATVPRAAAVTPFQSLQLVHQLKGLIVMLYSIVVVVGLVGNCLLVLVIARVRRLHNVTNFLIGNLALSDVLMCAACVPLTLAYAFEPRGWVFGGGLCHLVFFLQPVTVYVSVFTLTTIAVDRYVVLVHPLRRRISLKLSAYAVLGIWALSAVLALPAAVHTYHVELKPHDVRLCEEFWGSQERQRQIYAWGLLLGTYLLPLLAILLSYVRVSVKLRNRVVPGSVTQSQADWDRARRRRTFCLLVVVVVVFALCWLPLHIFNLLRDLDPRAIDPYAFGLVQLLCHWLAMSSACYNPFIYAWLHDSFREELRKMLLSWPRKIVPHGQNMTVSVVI

T2: rat PrRP receptor in RC-4B/C cells (rat, UniProt Q64121 1-370)
T2 construct: whole, on cells; also called the rat receptor; GPR10
T2 sequence (looked up): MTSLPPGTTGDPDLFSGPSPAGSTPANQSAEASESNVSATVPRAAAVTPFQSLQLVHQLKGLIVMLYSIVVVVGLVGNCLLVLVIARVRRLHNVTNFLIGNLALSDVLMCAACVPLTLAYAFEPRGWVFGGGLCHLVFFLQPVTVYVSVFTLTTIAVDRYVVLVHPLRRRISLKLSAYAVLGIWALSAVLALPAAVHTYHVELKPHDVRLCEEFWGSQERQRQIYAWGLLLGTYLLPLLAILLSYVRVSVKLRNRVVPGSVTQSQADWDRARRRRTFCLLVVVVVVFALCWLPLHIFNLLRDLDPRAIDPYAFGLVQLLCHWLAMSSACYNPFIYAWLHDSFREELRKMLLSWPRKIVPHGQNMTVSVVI


Experiments:
[1] = tested on: MAPK/ERK1/2 signaling pathway in RC-4B/C cells; experiment: MAPK/ERK1/2 signaling in RC-4B/C cells (Western blot); assay type: cell-based, rat; conditions: 10^−6 mol·l^−1, 5 minute incubation
Procedure: RC-4B/C cells, which were used to determine if lipidated PrRP20 analogs are able to initiate the MAPK/ERK1/2 signaling pathway, were grown in 6-well plates up to the optimal density of […]. Seventeen hours before sample harvest, the growth medium was replaced by a serum-free medium lacking epidermal growth factor (EGF). The respective lipidated PrRP analog was added to each well in the final concentration of 10^−6 mol·l^−1. After a 5 minute incubation at 37° C., the plate was placed on ice and each well was rinsed three times with PBS pH 7.4 (137 mmol·l^−1 NaCl, 2.7 mmol·l^−1 KCl, 8 mmol·l^−1 Na2HPO4.2H2O a 1.76 mmol·l^−1 KH2PO4) and cooled to 4° C. […] Samples were collected in at least three independent experiments.
To determine if the lipidated PrRP20 analogs initiated the MAPK/ERK1/2 signaling pathway, Western blot analysis was used. Electrophoresis was performed on 5%/12% polyacrylamide gel in the presence of SDS (SDS-PAGE) on the instrument MiniProtean 3 (BioRad, Herkules, Calif., USA). Samples that were loaded on the gel were first disintegrated by ultrasound, then heated at 100° C. for 2 minutes, and centrifuged for 5 minutes at 500×g at room temperature. […] Electrophoresis was performed at a constant voltage of 100 V for 10 minutes, or for 60 minutes at 150 V.
To show the presence of phosphorylated proteins in the samples, the proteins from the SDS-PAGE gel were transferred to the Immobilon™-P PVDF (polyvinylidene difluoride) membrane (Sigma-Aldrich, USA). The transfer was performed in blotting buffer at pH 8.3 (25 mmol·l^−1 Tris, 192 mmol·l^−1 glycine and 20% methanol) for 20 hours at 4° C. at a constant voltage of 30 V.
After the protein transfer to the PVDF membrane, the membranes were washed for 5 minutes in TBS washing buffer (20 mmol·l^−1 Tris, 140 mmol·l^−1 NaCl and 0.1% Tween-20) and then incubated for 1 hour in blocking buffer (TBS with 5% non-fat milk powder and 5 mmol·l^−1 Na3VO4 and 50 mmol·l^−1 NaF) at room temperature. Further, the membranes were washed three times for 5 minutes using the TBS washing buffer. The membranes were then incubated with the primary antibody against phospho-p44/42 MAPK(Thr202/Tyr204) (Cell Signaling Technology, Beverly, USA) which was diluted in blocking buffer at 1:1000. After the next three washes with the TBS washing buffer for 5 minutes, the membranes were incubated for 1 hour with rabbit secondary antibody labeled with peroxidase (Sigma, St. Louis, USA) which was diluted in blocking buffer at 1:12,000.
The membranes were then washed three times in TBS washing buffer for 5 minutes and then the solution Femto (Pierce SuperSignal, Thermo Fisher Scientific, Rockford, Ill., USA) was applied. The induced chemiluminiscence was detected by a CCD camera (LAS 3000, Fuji Photo Film GmBH, Düsseldorf, Germany).
To assess the initiation of signaling pathways, a densitometric analysis using the program Quantity One (BioRad, Hercules, Calif., USA) was used. For statistical evaluation of the statistically significant response of the cellular signaling, one-way ANOVA with subsequent Dunnett post-hoc test was used. Data was statistically significant at P<0.05.

[2] = target: T1, rat PrRP receptor (GPR10) in RC-4B/C cells; experiment: Competitive binding to rat pituitary RC-4B/C cells; conditions: ^125I-rat PrRP31, RC-4B/C cells
Procedure: Competitive binding experiments were performed according to Motulsky and Neubig (Motulsky, A., et al., “Analyzing radioligand binding data,” Curr Protoc Neurosci, Chapter 7, Unit 7.5, 2002). The rat pituitary cell line RC-4B/C (ATCC, Manassas, USA) was grown on 24-well plates which had their bottom coated with polyethyleneimine. The cells were grown to the optimal density of 300-450 thousand per well. […] Plates were incubated for 60 minutes at room temperature. After incubation, the cells were solubilized in 0.1 mol/l solution of NaOH and the radioactivity bound to the cells was counted using a γ-counter. The experiments were performed in duplicate and repeated at least three times. For evaluation of competitive binding experiments, the program Graph Pad Prism Software (San Diego, Calif., USA) was used. A method of nonlinear regression assuming one-site binding was used.

[3] = target: T2, rat PrRP receptor in RC-4B/C cells; experiment: competition with 125I-rat PrRP31 on RC-4B/C cells
Procedure: (§1) The rat pituitary cell line RC-4B/C (ATCC, Manassas, USA) was grown on 24-well plates which had their bottom coated with polyethyleneimine. The cells were grown to the optimal density of 300-450 thousand per well.
(§2) Plates were incubated for 60 minutes at room temperature. After incubation, the cells were solubilized in 0.1 mol/l solution of NaOH and the radioactivity bound to the cells was counted using a γ-counter. The experiments were performed in duplicate and repeated at least three times.

[4] = target: T2, rat PrRP receptor in RC-4B/C cells; experiment: competition with 125I-rat PrRP31 on RC-4B/C cells; Ki by Cheng-Prusoff
Procedure: as §1, §2
For evaluation of competitive binding experiments, the program Graph Pad Prism Software (San Diego, Calif., USA) was used. A method of nonlinear regression assuming one-site binding was used.

% of PrRP31 binding [2] [%]	% of PrRP31 binding [3] [%]	Ki [4] [nM]	Molecule	ERK signaling [1]
172	–	–	CCCCCCCC(=O)NC[C@H](N)C(=O)N[C@@H](CCCNC(=N)N)C(=O)N[C@@H](C)C(=O)N[C@@H](Cc1c[nH]cn1)C(=O)N[C@@H](CCC(N)=O)C(=O)N[C@@H](Cc1c[nH]cn1)C(=O)N[C@@H](CO)C(=O)N[C@@H](CCCC)C(=O)N[C@@H](CCC(=O)O)C(=O)N[C@H](C(=O)N[C@@H](CCCNC(=N)N)C(=O)N[C@H](C(=O)N1CCC[C@H]1C(=O)N[C@@H](CC(=O)O)C(=O)N[C@H](C(=O)N[C@@H](CC(N)=O)C(=O)N1CCC[C@H]1C(=O)N[C@@H](C)C(=O)N[C@@H](Cc1c[nH]c2ccccc12)C(=O)N[C@@H](Cc1ccc(O)cc1)C(=O)N[C@H](C(=O)NCC(=O)N[C@@H](CCCNC(=N)N)C(=O)NCC(=O)N[C@H](C(=O)N[C@@H](CCCNC(=N)N)C(=O)N1CCC[C@H]1C(=O)N[C@H](C(=O)NCC(=O)N[C@@H](CCCNC(=N)N)C(=O)N[C@@H](Cc1ccccc1)C(N)=O)C(C)C)[C@@H](C)CC)[C@@H](C)O)[C@@H](C)CC)[C@@H](C)O)[C@@H](C)O [Analog 2] (H-[Dap](Octanoyl)RAHQHS[Nle]ETRTPDINPAWYTGRGIRPVGRF-NH2)	agonist
–	172	2.86	[Dap](Octanoyl)RAHQHS[Nle]ETRTPDINPAWYTGRGIRPVGRF-NH2 (N-terminus assumed; SMILES CCCCCCCC(=O)NC[C@H](N)C(=O)N[C@@H](CCCNC(=N)N)C(=O)N[C@@H](C)C(=O)N[C@@H](Cc1c[nH]cn1)C(=O)N[C@@H](CCC(N)=O)C(=O)N[C@@H](Cc1c[nH]cn1)C(=O)N[C@@H](CO)C(=O)N[C@@H](CCCC)C(=O)N[C@@H](CCC(=O)O)C(=O)N[C@H](C(=O)N[C@@H](CCCNC(=N)N)C(=O)N[C@H](C(=O)N1CCC[C@H]1C(=O)N[C@@H](CC(=O)O)C(=O)N[C@H](C(=O)N[C@@H](CC(N)=O)C(=O)N1CCC[C@H]1C(=O)N[C@@H](C)C(=O)N[C@@H](Cc1c[nH]c2ccccc12)C(=O)N[C@@H](Cc1ccc(O)cc1)C(=O)N[C@H](C(=O)NCC(=O)N[C@@H](CCCNC(=N)N)C(=O)NCC(=O)N[C@H](C(=O)N[C@@H](CCCNC(=N)N)C(=O)N1CCC[C@H]1C(=O)N[C@H](C(=O)NCC(=O)N[C@@H](CCCNC(=N)N)C(=O)N[C@@H](Cc1ccccc1)C(N)=O)C(C)C)[C@@H](C)CC)[C@@H](C)O)[C@@H](C)CC)[C@@H](C)O)[C@@H](C)O, analog of rat PrRP31; also called [Dpr(oct)^1]PrRP31) [analog no. 2]	–
